Consider 3 compounds from PMC8238948, “Potent inhibitors of toxic alpha-synuclein identified via cellular time-resolved FRET biosensors” (NPJ Parkinson's Disease, 2021).

In assay [1] the test system is inter-protomeric and intra-protomeric αSN FRET biosensors in HEK293 cells. The assay can be described thus: Pilot HTS of the LOPAC library, fluorescence lifetime (FLT) of cellular αSN FRET biosensors. It is filed as cell-based, human. As to conditions: 10 µM compound, 90 min; hit = FLT change >5 SD.
Experimental: Prior to each pilot HTS, FLT and emission spectrum were measured to verify signal level, basal FRET, coefficient of variance (CV), and similarity index. For each HTS, cells were dispensed into compound plates—1536-well (10 µL/well)—and incubated with the compounds (10 µM) or dimethyl sulfoxide (DMSO; 1%) for 90 min. FLT measurements were acquired with the FLT-PR. After deconvolving the instrument response function, a single exponential fit was used to determine the FLT for both the αSN cellular FRET biosensor (τDA) and the donor-only control biosensor (τD). FRET efficiency was determined by Eq. 1. CV was determined from control plates (N = 384 wells).
Fluorescent compounds (FC) were flagged using a spectral similarity index filter, which evaluates the ratio of intensity from two bandwidths that span the donor emission spectrum and are excluded as potential false positives[45],[46],[49],[51],[66]. […] Compounds that changed FLT by >5 standard deviations (SD) were considered hits (Fig. 5, red data points).
On each day of screening, the compound plates were equilibrated to room temperature (RT; 25 °C). The cells were harvested from the 100-mm plates by incubating with TrypLE (Invitrogen) for 2 min, washed three times in PBS by centrifugation at 200 × g, and filtered using 70-μm cell strainers (BD Falcon). Cell viability prior to screen was assessed using a trypan blue assay and confirmed to be >80%. Cells were diluted to 1.5E6 cells/mL. Expression of GFP-αSN and the αSN biosensors were confirmed by fluorescence microscopy prior to each screen (EvosFL-Auto microscope, Thermo Fisher Scientific, USA). During screening, cells (50 μL/well for 384-well; 10 μL/well for 1536-well) were dispensed by a Multidrop Combi liquid dispenser (Thermo, Pittsburg, PA, USA) into the assay plates containing the compounds and allowed to incubate at RT for 90 min before recording with the FLT-PR or SUPR (both instruments manufactured by Fluorescence Innovations Inc., both owned and provided by Photonic Pharma LLC), as described previously[46].
Interfering compounds were flagged as potential false positives by a set of stringent FC filters based on spectral analysis of each well from the LOPAC screen[45],[46]. After removal of FCs, a histogram of the FLT distribution from all compounds in the screen was plotted and fit to a Gaussian curve to obtain the mean (µ) and SD (σ). A hit was defined as a compound that attenuated the FLT efficiency by >5σ relative to the mean µ (Supplementary Fig. 12).
The next assay concerns the target T1, 3FY-αSN (monomeric αSN) (Homo sapiens, UniProt P37840).
T1 construct: made in house
The assay can be described thus: Protein-observed fluorine NMR (PrOF NMR). It is filed as binding. To be noted: for 19F chemical shifts / resonance broadening on titration: 20 μM 3FY-αSN, compound titration. On the procedure: PrOF NMR provides a perturbation-free method to monitor αSN conformation and structure through the incorporation of F19-labeled 3-fluoro-Tyrosine into recombinant protein[89].
Experiments were run on a Bruker 600-MHz Avance NEO (6001), equipped with a 5 mm triple resonance cryoprobe. 3FY-αSN was diluted in PBS, pH = 7.4 buffer by the addition of D2O and 0.1% trifluoroacetic acid (TFA) to final concentrations of 5 and 0.07%, respectively, in a total NMR sample volume of 150 µL. Two one-dimensional ^19F NMR spectra were taken of the protein sample at an O1P of −75 ppm, NS = 16, D1 = 1 s, and AQ = 0.5 s (TFA reference set to −75.25 ppm) and an O1P of −136 ppm, NS = 3072, D1 = 0.6 s, and AQ = 0.05 s (protein resonances). Ligand stock solutions of 1–10 mM were prepared in DMSO and titrated into the protein solutions (20 μM). As a control experiment, in a separate NMR tube, DMSO was added to a final concentration of 0.5, 0.6, 0.8, 1.5, and 2.5% to control for any solvent-induced chemical shifts. For each concentration, a TFA reference spectrum and a protein 1D-^19F NMR spectrum were acquired.
Supplemental Figure 20. PrOF NMR experiments with hit compounds and fluorinated αSN support a lack of binding to monomeric αSN. (a) 19F NMR spectrum and assignments of 3FY- αSN. The resulting spectrum is consistent with the spectrum of monomeric 3FY- αSN reported by 4. Corresponding assignments are used from that report. Stacked 19F NMR spectra with an increasing concentration of (b) Ro 90-7501 and (c) DEM HCl […]
compound binding to monomeric αSN. An exception is at high concentrations of Ro 90-7501(110 μM) a small degree of chemical shift perturbation is observed.
(§1) (1 picture or pasted object on this page, not shown here)

The subject of assay [2] is SH-SY5Y cells transfected with unlabeled WT αSN. Nature of the assay: αSN expression levels in SH-SY5Y cells (immunoblot). It is filed as cell-based, human. As to conditions: 1 μM compound; relative to DMSO. The protocol: We investigated one potential MOA for compounds RO and DEM in our SH-SY5Y cytotoxicity model. These compounds might rescue αSN-induced cytotoxicity by modulating αSN expression[81],[82]. SH-SY5Y cells transfected with empty-vector or unlabeled WT αSN were treated with DMSO, RO, or DEM at 1 μM concentration. […] This effect may be due to prolonged survival of cells expressing higher levels of αSN, which would be lost in DMSO-treated samples or as a result of shifting monomer:oligomer ratios. Studies have shown that there is a fine balance in αSN expression, where too much can lead to aggregation, but αSN expression can also be neuroprotective[81],[83]–[86].
Supplemental Figure 15. Rescue of αSN-induced cytotoxicity in SH-SY5Y cells is not driven by suppression of αSN expression. One potential MOA for our hit compounds could be reduction of αSN levels, thereby alleviating the αSN induced cytotoxicity. (a) Treatment of SH-SY5Y cells expressing either αSN or […]
DMSO for both RO and DEM. (b) Quantification of a via densitometry analysis.
as §1

For assay [3], the target named is T2, labeled αSN (monomeric) (Homo sapiens, UniProt P37840, E130C/T54C).
T2 construct: made in house; host or cells: Escherichia coli BL21(DE3)
Nature of the assay: smFRET measurements of αSN monomer conformation. To be noted: αSN labeled at 54-130C; +20μM compound; mean ± standard deviation. On the procedure: (§2) SmFRET experiments were performed using two different labeled αSN constructs (residues 9–72 and residues 54–130) that report on intra-monomeric FRET (e.g., monomer conformation) of the N-terminal and C-terminal domains of αSN. […] We were not able to evaluate RO with smFRET, due to interactions of RO with the AlexaFluor-594 label.
(§3) Single-molecule FRET measurements were carried out using ~30 pM of labeled αSN in 20 mM Tris pH 7.4 and 50 mM NaCl in 8-chambered Nunc coverslips (ThermoFisher) passivated with poly(ethylene glycol) poly(L-lysine) to reduce protein adsorption to the chambers. Measurements were made on a MicroTime 200 time-resolved confocal microscope (Picoquant) as described previously. Laser power was adjusted to ~30 μW before sample illumination. Fluorescence emission was collected through the objective and passed through a 150-μm diameter pinhole. Photons were separated by an HQ585LP dichroic in combination with ET525/50M and HQ600LP filters and detected by avalanche photodiodes. Photon traces were collected in 1-ms time bins for 1 h. A cutoff of 25 counts/ms was applied to discriminate between bursts arising from fluorescently labeled protein and background noise. The FRET efficiency (Eeff) was calculated using the SymphoTime 64 software. SmFRET histograms were fit with Gaussian distributions to determine the peak Eeff values. Each measurement was carried out three times and mean Eeff values are the average and SD of these measurements (Supplementary Table 2). Alignment of instrument and analysis were verified using smFRET reference standards consisting of 10, 14, and 18 base pair dsDNA labeled with Alexa 488 and Alex 594 with their 5’ and 3’ ends.

The target of assay [4] is T3, labeled αSN (monomeric) (Homo sapiens, UniProt P37840, S9C/T72C).
T3 construct: made in house; host or cells: Escherichia coli BL21(DE3)
Nature of the assay: smFRET measurements of αSN monomer conformation. As to conditions: αSN labeled at 9C-72C; +20μM compound; mean ± standard deviation. On the procedure: as §2, §3

Counter-ions that a name gives are not always drawn.

Regarding `CN(C)[C@@H]1C(O)=C(C(N)=O)C(=O)[C@@]2(O)C(O)=C3C(=O)c4c(O)ccc(Cl)c4[C@@H](O)[C@H]3C[C@@H]12` [DEM, Demeclocycline HCl], the “identified as hit in the LOPAC screen” value in assay [1] is “identified”. The “19F chemical shifts / resonance broadening on titration” value at 3FY-αSN (monomeric αSN) is reported as “no significant chemical shifts or resonance broadening”. For the same compound, the “total αSN expression levels” value in assay [2] is listed as “no change”. The results for the “Eeff (smFRET efficiency)” value on labeled αSN (monomeric) [3] and at labeled αSN (monomeric) [4] were 0.60 ± 0.008 and 0.55 ± 0.005, respectively.
Regarding `Nc1ccc(-c2nc3ccc(-c4nc5ccc(N)cc5[nH]4)cc3[nH]2)cc1` [RO, Ro 90–7501], on 3FY-αSN (monomeric αSN) (20 µM 3FY-αSN, 110 μM compound), the “19F chemical shift perturbation at high concentration” value is “small degree of chemical shift perturbation”. Further, the “19F chemical shifts / resonance broadening on titration” value on 3FY-αSN (monomeric αSN) is “no significant chemical shifts or resonance broadening”. The “total αSN expression levels” value in assay [2] is reported as “no change”.
As to `COC(=O)C1=C(C)NC(C)=C([N+](=O)[O-])C1c1ccccc1C(F)(F)F` (racemic) [BAY, (±)-Bay K 8644], the “Eeff (smFRET efficiency)” value on labeled αSN (monomeric) [3] was determined as 0.58 ± 0.005; at labeled αSN (monomeric) [4], 0.54 ± 0.013.
